# Assay results taken from patent US20100222421A1, “Usage of Baicalein in the Preparation of a Pharmaceutical Composition for the Treatment of Traumatic Brain Injury” (National Defense Medical Center, priority 2009, published 2010).
# Legend:
# [1] = tested on: TNF-α mRNA; assay: Real-time quantitative RT-PCR, TNF-α mRNA after CCI injury; format: in vivo, rat; conditions: single-dose 30 mg kg^-1 i.p.; ipsilateral cortex, 6 h after injury; P<0.05
# Protocol: (§1) A previously described CCI injury procedure was utilized (Chen et al., 2003). Male Sprague-Dawley rats, which have body weight of 250-300 g, were anaesthetized with sodium pentobarbital (i.p.; 50 mgkg^−1; Rhone Merieux, Harlow, UK) and placed in a stereotaxic frame. A 5-mm craniotomy was performed over the left parietal cortex, centered on the coronal suture and 3 mm lateral to the sagittal suture. Considerable care was taken to avoid injury to the underlying dura. Injury was made using a pneumatic piston with a rounded metal tip (2.5 mm diameter) that was angled 22.5° C. to the vertical so that the tip was perpendicular with the brain surface at the centre of the craniotomy. A velocity of 4 ms^−1 and a deformation depth 2 mm below the dura were used. […] Body temperature was monitored throughout the surgery by a rectal probe; temperature was maintained at 37.0±0.5° C. using a heated pad. […] Testing after injury was as follows: (1) real-time quantitative RT-PCR analysis for TNF-α, IL-1β and IL-6 mRNA expression at 6 h post-injury (n=7 for each group); (2) FluoroJade B (FJB) staining, TNF-α, IL-1β and IL-6 immunohistochemistry, as well as ELISA at 24 h post-injury to assess degenerative neurons and to determine cytokine expression (n=7 for each group). […] Approximately 50 mg tissue was collected from the ipsilateral (injured) hemisphere and processed for real-time quantitative RT-PCR. […]
# [2] = tested on: IL-6 mRNA; assay: Real-time quantitative RT-PCR, IL-6 mRNA after CCI injury; format: in vivo, rat; conditions: single-dose 30 mg kg^-1 i.p.; ipsilateral cortex, 6 h after injury; P<0.05
# Protocol: as §1
compound,measurement,setting,value
O=c1cc(-c2ccccc2)oc2cc(O)c(O)c(O)c12 [baicalein],"TNF-α mRNA level, % of level in vehicle-treated injured rats",[1],49%
same,"IL-6 mRNA level, % of level in vehicle-treated injured rats",[2],43.6%
